Values joined by “and” are separate entries in the source; they are usually repeats but may differ in a detail not shown here. Equal values may be shown once. Read-outs that look alike come from different tables or passages of the source.

Data set [1] in a line: Absorption of sUV wavelengths by the PRPK inhibitors. The conditions noted are these: for absorption of sUV wavelengths: UVB or UVA range (280 to 400 nm). The class given is physicochemical. Here is the method:
To assess whether the effectiveness of rocuronium bromide or betamethasone 17-valerate was related to absorption or attenuation of sUV wavelengths, instead of or in addition to inhibition of PRPK phosphorylation, absorption of sUV wavelengths by rocuronium bromide or betamethasone 17-valerate was evaluated. […] The maximum absorption wavelength for rocuronium bromide was 227 nm, and that for betamethasone-17-valerate was 240 nm.

The subject of data set [2] is cyclobutane pyrimidine dimers (CPD). Description: Cyclobutane pyrimidine dimer (CPD) formation in skin of SKH1 hairless mice exposed to acute SSL. The conditions noted are these: topical 0.1% or 1%. Type of data set: in vivo, mouse. Here is the method: The effect of rocuronium bromide treatment and betamethasone 17-valerate treatment on the formation of cyclobutene pyrimidine dimers was evaluated. sUV-induced DNA damage, predominantly observed as the formation of cyclobutane pyrimidine dimers (CPD), is recognized as an important molecular trigger for the initiation of sUV-induced immunosuppression and carcinogenesis in the skin. FIG. 19A is a chart comparing effect of rocuronium bromide treatment and betamethasone 17-valerate treatment on the formation of cyclobutene pyrimidine dimers in skin tissues from SKH1 hairless mice exposed to acute SSL. FIG. 19C is a photographic array comparing amount of CPD in immunologically stained control mouse skin samples. FIG. 19D is a photographic array comparing amount of CPD in immunologically stained mouse skin samples exposed only to a vehicle. FIG. 19E is a photographic array comparing amount of CPD in immunologically stained mouse skin samples exposed to rocuronium bromide alone. FIG. 19F is a photographic array comparing amount of CPD in immunologically stained mouse skin samples exposed to betamethasone 17-valerate alone. FIG. 19G is a photographic array comparing amount of CPD in immunologically stained mouse skin samples exposed to SSL alone. FIG. 19H is a photographic array comparing amount of CPD in immunologically stained mouse skin samples exposed to SSL with the vehicle. […]

In data set [3] the test system is SSL-induced skin carcinogenesis in SKH-1 hairless mice. Description: Chronic SSL-induced skin carcinogenesis in SKH-1 hairless mice (early-stage and late-stage prevention models). The class given is in vivo, mouse. The conditions noted are these: for SSL-induced neovascularization in tumor areas: early- and late-stage models (FIGS. 23, 24A, 24B); for SSL-induced skin carcinogenesis: topical cream 0.1% or 1%; for Ki-67 expression / PRPK phosphorylation: skin staining, FIGS. 23, 24A, 24B. Here is the method:
The effectiveness of rocuronium bromide (EXAMPLES 11 and 12) and betamethasone 17-valerate (EXAMPLE 13) in mouse models of chronic sUV-induced skin carcinogenesis was evaluated. Female SKH-1 hairless mice (5 weeks old, Charles River, Burlington, MA) were used. Skin carcinogenesis was induced by SSL-irradiation source lamps. […] For topical treatment to the dorsal mouse skin, cream (oil-in-water emulsions) containing 0.1% or 1% (0.1 or 1 mg in 100 μl) of rocuronium bromide or betamethasone 17-valerate were prepared. The models included early-stage prevention models (EXAMPLE 11) and a late-stage prevention models (EXAMPLES 12 and 13). […] SSL treatment was for 15 weeks and the drug cream was continued for 29 weeks. In the late-stage model, mice received SSL for 15 weeks at which time they began receiving topical application with rocuronium bromide or betamethasone 17-valerate. For the early stage model, SKH-1 hairless mice were divided into groups as follows: Groups 1 and 2 were negative control groups, untreated and treated with only cream vehicle with no SSL exposure; Group 3=1% rocuronium bromide; Group 4=SSL alone without cream; Group 5=SSL with cream only; Group 6=0.1% rocuronium bromidein cream with SSL; Group 7=1% rocuronium bromide in cream with SSL. For the late stage models, groups were as follows: Groups 8 and 9 were negative control groups, untreated and treated with only cream vehicle with no SSL exposure; Group 10=1% rocuronium bromide only; Group 11=1% betamethasone 17-valerate only; Group 12=SSL alone with cream; Group 13=SSL with 0.1% rocuronium bromide; Group 14=1% rocuronium bromide in cream with SSL; Group 15=0.1% betamethasone 17-valerate in cream with SSL; and Group 16=1% […] betamethasone 17-valerate in cream with SSL. An antibiotic ointment was applied to the eyes of each mouse prior to SSL exposure and body weight and tumor volume were measured each week.

Data set [4] in a line: Pharmacokinetics: plasma levels after topical RB cream. Type of data set: in vivo, SKH1-Hrhr hairless mice. The conditions noted are these: for ng/ml RB (plasma, single mouse): listed as RB; for concentration at 24 h: 24 h post-dose. The method, then: To assess pharmacokinetics, RB cream (1.0 mg RB in 100 μl cream) was topically applied to the dorsum of SKH1-Hrhr hairless mice (Charles River), and plasma sample were taken at 0, 0.25, 0.5, 1, 2, 6, 24 and 48 hours post-dose (3 mice/time point).

For `CCCCC(=O)O[C@]1(C(=O)CO)[C@@H](C)C[C@H]2[C@@H]3CCC4=CC(=O)C=C[C@]4(C)[C@@]3(F)[C@@H](O)C[C@@]21C` [betamethasone 17-valerate], in data set [1], the maximum absorption wavelength is given as 240 nm and the “absorption of sUV wavelengths” value is on record as “do not Substantially Absorb or Block”. Also, in data set [2], the “sUV-induced CPD production” value is listed as “reduced”. For the same molecule, in data set [3], the “SSL-induced neovascularization in tumor areas” value is recorded as “inhibited”, the Ki-67 expression result is recorded as “inhibited” and the PRPK phosphorylation entry was “inhibited”. Moreover, in data set [3] (late-stage model), the tumor number entry is on record as “reduces”, the tumor volume result is listed as “reduces” and the SSL-induced skin carcinogenesis result is “reduced”.

Consider `C=CC[N+]1([C@H]2C[C@H]3[C@@H]4CC[C@H]5C[C@H](O)[C@@H](N6CCOCC6)C[C@]5(C)[C@H]4CC[C@]3(C)[C@H]2OC(C)=O)CCCC1` [rocuronium bromide], for which the maximum absorption wavelength in data set [1] came to 227 nm. Besides, the “absorption of sUV wavelengths” value in data set [1] is “do not Substantially Absorb or Block”. The “time of peak plasma levels post application” value in data set [4] (1.0 mg RB in 100 μl cream topically) is not above 15 min. Also, the “ng/ml RB (plasma, single mouse)” value in data set [4] (0.25 h post-dose, 1.0 mg RB in 100 μl cream topically) is 3058 ng/mL and 18 ng/mL and 210 ng/mL; in data set [4] (0.5 h post-dose, 1.0 mg RB in 100 μl cream topically), 123 ng/mL and 36 ng/mL and 73 ng/mL; in data set [4] (1 h post-dose, 1.0 mg RB in 100 μl cream topically), 7 ng/mL and 25 ng/mL and 48 ng/mL; in data set [4] (2 h post-dose, 1.0 mg RB in 100 μl cream topically, BDL = below detection limit (~2 ng/ml)), 15 ng/mL; in data set [4] (6 h post-dose, 1.0 mg RB in 100 μl cream topically, BDL = below detection limit (~2 ng/ml)), 8 ng/mL. In data set [4] (SKH1-Hrhr hairless, mouse, plasma, topical, 1 mg, 0.25 h post-dose, 3 mice), this molecule registered a concentration at 0.25 h of 1100 ng/mL. The molecule further returned a concentration at 0.5 h in data set [4] (SKH1-Hrhr hairless, mouse, plasma, topical, 1 mg, 0.5 h post-dose, 3 mice) of 77.3 ng/mL. Also, the concentration at 1 h in data set [4] (SKH1-Hrhr hairless, mouse, plasma, topical, 1 mg, 1 h post-dose, 3 mice) came to 26.7 ng/mL. For the same molecule, the concentration at 2 h in data set [4] (SKH1-Hrhr hairless, mouse, plasma, topical, 1 mg, 2 h post-dose, 1.0 mg RB in 100 μl cream topically, BDL = below detection limit (~2 ng/ml), read-out: ng/ml RB (plasma, single mouse)) was determined as 11 ng/mL; in data set [4] (SKH1-Hrhr hairless, mouse, plasma, topical, 1 mg, 2 h post-dose, 3 mice, read-out: MEAN ng/ml RB (plasma)), 8.7 ng/mL. For the same molecule, the concentration at 6 h in data set [4] (SKH1-Hrhr hairless, mouse, plasma, topical, 1 mg, 6 h post-dose, 1.0 mg RB in 100 μl cream topically, BDL = below detection limit (~2 ng/ml), read-out: ng/ml RB (plasma, single mouse)) was 7 ng/mL; in data set [4] (SKH1-Hrhr hairless, mouse, plasma, topical, 1 mg, 6 h post-dose, 3 mice, read-out: MEAN ng/ml RB (plasma)) it was 5 ng/mL. Further, the concentration at 24 h in data set [4] (SKH1-Hrhr hairless, mouse, plasma, topical, 1 mg, 1.0 mg RB in 100 μl cream topically, BDL = below detection limit (~2 ng/ml), read-out: ng/ml RB (plasma, single mouse)) amounted to 14 ng/mL; in data set [4] (SKH1-Hrhr hairless, mouse, plasma, topical, 1 mg, 3 mice, read-out: MEAN ng/ml RB (plasma)) it was 4.7 ng/mL. The “time at which RB in plasma approaches baseline levels for the assay” value in data set [4] (post-dose, 1.0 mg RB in 100 μl cream topically) was “approximately 6 hours”. The “sUV-induced CPD production” value in data set [2] is on record as “reduced”. For the same molecule, the “levels of COX-2 in SKH-1 hairless mouse skin” value in data set [3] (FIGS. 20C, 21C) is “suppressed”. In addition, in data set [3] (FIGS. 20C, 21C), the “levels of MMP-9 in SKH-1 hairless mouse skin” value is on record as “suppressed”. Besides, in data set [3] (FIGS. 20C, 21C), the “levels of cyclin D1 in SKH-1 hairless mouse skin” value is “suppressed”. Also, in data set [3] (FIGS. 20C, 21C), the “levels of phosphorylated PRPK in SKH-1 hairless mouse skin” value was “suppressed”. Also, in data set [3], the “SSL-induced neovascularization in tumor areas” value is given as “inhibited”. In addition, the tumor volume result in data set [3] (early-stage model (FIG. 20A)) and in data set [3] (late-stage model) was “decreased” each time. For the same molecule, the tumor number result in data set [3] (early-stage model (FIG. 20B)) and in data set [3] (late-stage model) was “decreased” each time. Besides, the SSL-induced skin carcinogenesis result in data set [3] (early-stage model) and in data set [3] (late-stage model) was “reduced” in each case. For the same molecule, the Ki-67 expression result in data set [3] is on record as “inhibited”. Besides, the PRPK phosphorylation result in data set [3] is listed as “inhibited”.
